According to patent US9023788B2, “Methods compounds and pharmaceutical compositions for treating anxiety and mood disorders” (New York University, priority 2010, dated 2015):

Legend:
[1] = in vivo; cited from earlier work
Swiss Webster male mice [2] = assay: Observation for sedation and signs of toxicity; type: in vivo, mouse
From the text: Sedation interferes with behavioral performance and is therefore a detrimental side effect to the treatment of major depressive illness in humans.
Although dp6FNE was designed to be a temporary treatment, it was of interest to determine how long it would remain effective if given repeatedly.

[3] = Chronic mild stress (CMS)-anhedonia model, sweetened milk consumption; type: in vivo; settings: FIG. 5
From the text: The latter property may actually be beneficial as it would counter the weight gain frequently reported with antidepressant treatment (Richelson, Mayo Clin Proc 2001; 76: 511-527).

handling-stressed mice = assay: Home cage activity after handling and injection stress; type: in vivo, mouse; settings: acute i.p. dp6FNE 1 mg/kg in the presence of phentolamine; cirazoline 0.1 mg/kg; FIG. 3
Method: FIG. 3 depicts the effect of acute i.p. dp6FNE (1 mg/kg) or cirazoline (0.1 mg/kg), (both N=1), on home cage activity in terms of rearing and ambulation, Veh (N=12).
It is known that peripheral administration of α1-agonists without phentolamine impairs exploratory behavior in the open field (Yang, et al., J Pharmacol exp Ther 1990; 255: 1064-1070).

Swiss Webster male mice [4] = assay: Open field motor activity and anxiety (i.p. dp6FNE/prazosin); type: in vivo, mouse; settings: 1 h; dp6FNE 0.1-3 mg/kg/prazosin; amphetamine 2 mg/kg i.p.
Method: For purposes of comparison, some animals received instead d-amphetamine, 2 mg/kg, i.p. Total quadrants entered and time in the center area of the field as a ratio to the total distance traveled were rated from videorecordings.

mice [5] = assay: Light/dark box test; type: in vivo, mouse; settings: dp6FNE 0, 1, 3, 10 mg/kg i.p. plus phentolamine 1 mg/kg; Example 6, expected
Method: (§1) To verify that dp6FNE has anxiolytic effects this agent is tested in both the light/dark box (Shimada, et al., Gen Pharmac 1995; 26: 205-210) and elevated plus-maze (Pellow, et al., J Neurosci Methods 1985; 14: 149-167). […] For the plus-maze, the animal is placed in the center section of the maze and videotaped to determine both number of entries and time spent in the open and closed arms of the maze.

Swiss Webster male mice [6] = assay: Repeated open space forced swim (RFS) test
Method: (§2) In experiment on chronic administration, a daily dose of 0.5 mg/kg in the same vehicle was administered for 11 d.
(§3) Infusion procedure. All experiments were performed between 1000 and 1400 hr. […] A total of 350 n1 of solution was infused at 100 nl/min over a 3.5 min period with the cannula remaining in place for 30 seconds after infusion. The animal was then subjected to the behavioral tests described below making the interval between the start of infusion and start of behavioral test 4.5-5 min. […] All drugs were prepared freshly each day in saline.
In this procedure, mice are swum for 15-20 min/d for 4 d in rat tub cages (24×43×23 cm, w×h×l) filled with 13 cm high luke-warm water (32-34° C.) and thereafter once or twice a week. […] In the present experiment, the animals were matched on immobility level of the 4th swim into vehicle and drug groups and infused ivt. just prior to the 5th swim. Groups given i.p. injections were dosed initially 5 min after the 4th swim and finally 30 min prior to the 5th swim. Discs were rated as above on immobility and distance swum (number of quadrants entered).

Swiss Webster male mice [7] = assay: Tail suspension test; type: in vivo, mouse; settings: i.p. 1, 3 and 10 mg/kg; FIG. 5
Method: as §2, §3
Tail suspension test: The procedure of Stem, et al., Psychopharmacology 1985; 85: 367-370 was used. Immediately following intraventricular infusion or 30 min after the third i.p. injection, the animals were taped by the tail 72 cm above a padded platform for 6 min during which time they were videorecorded. Disks were subsequently rated blind as above for times immobile during the last 4 min of the test.

mice [8] = assay: Elevated plus-maze test; type: in vivo, mouse; settings: dp6FNE 0, 1, 3, 10 mg/kg i.p. plus phentolamine 1 mg/kg; Example 6, expected
Method: as §1

Structure (SMILES): CC(C)(C)C(=O)Oc1cc(F)c(C(O)CN)cc1OC(=O)C(C)(C)C (stereo not shown) [dp6FNE, Dipivalyl-6-fluoronorepinephrine]
- passage of the blood brain barrier / uptake by the brain [1]: does pass the blood brain barrier
- signs of toxicity (reduced arousal, disheveled fur coat) (Swiss Webster male mice [2]; after repeated treatment, 0.5 mg/kg i.p. 11 daily treatments, no formal measures): no obvious signs of toxicity
- sedation (Swiss Webster male mice [2]; intracerebral 6FNE or peripheral dp6FNE, range of behavioral tests): Sedation has not been observed
- CMS reduction of sweetened milk intake ([3]; acute i.p. dp6FNE with prazosin 0.2 mg/kg): eliminates the CMS reduction of intake
- hypophagia ([3]; acute i.p. dp6FNE): significant hypophagia
- home cage exploration / behavioral inhibition after handling and injection stress (handling-stressed mice): same rescue of home cage exploration
- motor activity (quadrants entered) (Swiss Webster male mice [4]): little or no effect on locomotor activity
- relative time in the center of the field (Swiss Webster male mice [4]): increased time in the center of the field
- time spent in the lighted side (mice [5]): increased time spent
- onset of action compared with available antidepressants (Swiss Webster male mice [6]; acute i.p. administration): significantly faster onset of action
- effect in repeated open-space swim test (Swiss Webster male mice [6]; acute i.p., dp6FNE 1, 3, 10 mg/kg with prazosin 0.2 mg/kg, DMI 10 mg/kg, FIG. 5): significant antidepressant action
- immobility versus vehicle (Swiss Webster male mice [6]; dp6FNE 0.3 mg/kg with prazosin 0.2 mg/kg, animals not pretreated with either antagonist): significantly reduced immobility versus vehicle
- distance swum versus vehicle (Swiss Webster male mice [6]; dp6FNE 0.3 mg/kg with prazosin 0.2 mg/kg, animals not treated with either antagonist): significantly increased distances swum
- speed or efficacy compared with partial α1-agonists (Swiss Webster male mice [6]; i.p. 0, 1, 3, 10 mg/kg with phentolamine 1 mg/kg, 30 min before swim, Example 5, expected): more rapid or efficacious than the partial α1-agonists
- antidepressant action in tail suspension test (Swiss Webster male mice [7]): significant antidepressant action
- time spent in the open arms (mice [8]): increased time spent
